# Structures can show the parent of a compound that is named as a salt.
# What was measured:
# [1] = Example 8: spectral sensitivity, cubic emulsion C-2; conditions: dye II 0.40 x10^-3, dyed control=100
# Protocol: (§1) Additional testing was carried out to determine the response of the coatings described in Table III to a spectral exposure. Each of the coating strips was exposed for 0.1 sec on a wedge spectrographic instrument that covers the wavelength range from 400 to 750 nm. The instrument contains a tungsten light source and a step tablet ranging in density from 0 to 3 density units in 0.3 density steps. After developing exposed strips for 6 min in Kodak Rapid X-ray Developer (KRX), speed was read at 10 nm wavelength intervals at a density of 0.3 above fog. Correction for the instrument's variation in spectral irradiance with wavelength was done with a computer and a plot of log sensitivity vs. wavelength was generated. For this exposure, for each dye used, the relative sensitivity was set equal to 100 for the control coating with no fragmentable two-electron donor compound added.
# (§2) Two cubic emulsions with uniform halide composition were precipitated using deionized gelatin. Emulsion C-1 was a AgErI emulsion with a 3% I content and a cubic edge length of 0.47 μm and emulsion C-2 was an AgBr emulsion with a cubic edge length of 0.52 μm. The emulsions were sulfur sensitized by adding 1,3-dicarboxymethyl-1,3-dimethyl-2-thiourea at 40° C.; the temperature was then raised to 60° C. at a rate of 5° C./3 min and the emulsions held for 20 min before cooling to 40° C. The amounts of the sulfur sensitizing compound used were 1.0×10^-5 mole/mole Ag for emulsion C-1, and 6.0×10^-6mole/mole Ag for emulsion C-2. These experimental coating variations contained the hydroxybenzene, 2,4-disulfocatechcol (HB3) at a concentration of 13 mmole/mole Ag, added to the melt before the addition of any further compounds. Some of the variations were then dyed with the sensitizing dye D-II, added from methanol solution. The fragmentable electron donor compounds were then added to the emulsion melts at 40° C. and coatings were prepared and tested as described in Example 1 except that the additional gelatin used to prepare the coatings described in Table VIII was deionized gelatin. Also, the dyed coatings were tested for their response to a spectral exposure as described in Example 3.
# [2] = Example 8: spectral sensitivity, cubic emulsion C-1; conditions: dye II 0.44 x10^-3, dyed control=100
# Protocol: as §1, §2
# [3] = Example 1: photographic speed and fog, 365 nm exposure, emulsion T-1; conditions: undyed; for S365: control=100
# Protocol: This chemically sensitized emulsion was then used to prepare the experimental coating variations indicated in Table I. All of the experimental coating variations in Table I contained the hydroxybenzene 2,4-disulfocatechol (HB3) at a concentration of 13 mmole/mole Ag, added to the melt before the addition of any further addenda. The fragmentable electron donor compounds as indicated in Table I were added from an aqueous potassium bromide solution, or from a methanol solution, before additional water, gelatin, and surfactant were added to the emulsion melts.
# (§3) For photographic evaluation, each of the coating strips was exposed for 0.1 sec to a 365 nm emission line of a Hg lamp filtered through a Kodak Wratten filter number 18A and a step wedge ranging in density from 0 to 4 density units in 0.2 density steps. The exposed film strips were developed for 6 min in Kodak Rapid X-ray Developer (KRX). S365, relative sensitivity at 365 nm, was evaluated at a density of 0.2 units above fog.
# [4] = Example 6: photographic speed and fog, 365 nm exposure, emulsion T-2; conditions: for effect on dye desensitization: red dyed emulsion (D-II), 365 nm
# Protocol: as §3
# An AgBrI tabular silver halide emulsion (Emulsion T-2) was prepared containing 4.05% total I distributed such that the central portion of the emulsion grains contained 1.5% I and the perimeter area contained substantially higher I, as described by Chang et. al., U.S. Pat. No. 5,314,793. […] This emulsion was precipitated using deionized gelatin. The emulsion was sulfur sensitized by adding 8.5×10^-6 mole 1,3-dicarboxymethyl-1,3-dimethyl-2-thiourea /mole Ag at 40° C.; the temperature was then raised to 60° C. at a rate of 5° C./3 min and the emulsions held for 20 min before cooling to 40° C. The chemically sensitized emulsion was then used to prepare coatings containing the fragmentable two-electron donor compounds. All of the experimental coating variations in Table III contained the hydroxybenzene 2,4-disulfocatechol (HB3) at a concentration of 13 mmole/ mole Ag, added to the melt before the addition of any further addenda. Where present, the blue sensitizing dye D-I or the red sensitizing dye D-II were added from methanol solution to the emulsion at 40° C. after the chemical sensitization and disulfocatechol addition. The fragmentable two-electron donor compounds were added to the emulsion at 40° C. and the coatings were prepared and tested as described in Example 1, except that the additional gelatin used to prepare the coatings described in Table III was deionized gelatin.
# The chemically sensitized AgErI tabular emulsion T-2 as described in Example 3 was used to prepare the experimental coating variations listed in Table VI, comparing fragmentable electron donating compounds PMT-1 and PMT-2 that contain a phenylmercaptotetrazole as the silver halide adsorbing group. For some of the experimental variations listed in Table VI the red sensitizing dye D-II was added from methanol solution to the emulsion at 40° C. after the chemical sensitization. The fragmentable electron donating compounds were then added to the emulsion and coatings prepared and tested for sensitivity at 365 nm and for spectral sensitivity as described in Example 3.
smiles,measurement,setting,value
"CCSCCN(c1ccccc1)C(C)C(=O)O (stereo not shown) [Compound S-9, N-(Phenyl)-N-(2-thioethyl-ethyl)alanine sodium salt]",Sλ,[1]; 0.005 x10^-3 mol/mol Ag,159
same,Sλ,[1]; 0.016 x10^-3 mol/mol Ag,195
same,Sλ,[2]; 0.005 x10^-3 mol/mol Ag,145
same,Sλ,[2]; 0.016 x10^-3 mol/mol Ag,178
CCSCCN(c1ccc(C(=O)O)cc1)C(C)C(=O)O (stereo not shown) [Compound S-11],Sλ,[1]; 0.05 x10^-3 mol/mol Ag,159
same,Sλ,[1]; 0.16 x10^-3 mol/mol Ag,186
same,Sλ,[2]; 0.05 x10^-3 mol/mol Ag,151
same,Sλ,[2]; 0.16 x10^-3 mol/mol Ag,178
"CCSCCN(c1ccc(C)cc1)[C@@H](C)C(=O)[O-].[Na+] [Compound S-3, N-(4-Methylphenyl)-N-(2-ethylthio-ethyl)alanine sodium salt]",Fog,[3]; 0.011 x10^-3 mole/mole Ag,0.05
same,S365,[3]; 0.011 x10^-3 mole/mole Ag,118
same,Fog,[3]; 0.022 x10^-3 mole/mole Ag,0.08
same,S365,[3]; 0.022 x10^-3 mole/mole Ag,132
same,Fog,[3]; 0.044 x10^-3 mole/mole Ag,0.22
same,S365,[3]; 0.044 x10^-3 mole/mole Ag,129
CCSCCN(c1ccc(C)cc1)C(CC(=O)O)C(=O)O (stereo not shown) [Compound S-8],Fog,[3]; 0.022 x10^-3 mole/mole Ag,0.08
same,S365,[3]; 0.022 x10^-3 mole/mole Ag,126
same,Fog,[3]; 0.07 x10^-3 mole/mole Ag,0.13
same,S365,[3]; 0.07 x10^-3 mole/mole Ag,135
Cc1ccc(N(CCC(=O)Nc2cccc(-n3nnnc3S)c2)C(C)C(=O)O)cc1 (stereo not shown) [PMT-1],Fog,"[4]; 0.0006 x10^-3 mole/mole Ag, dye II 0.86 x10^-3",0.14
same,S365,"[4]; 0.0006 x10^-3 mole/mole Ag, dye II 0.86 x10^-3, dyed control 73",97
same,Fog,"[4]; 0.0017 x10^-3 mole/mole Ag, dye II 0.86 x10^-3",0.27
same,S365,"[4]; 0.0017 x10^-3 mole/mole Ag, dye II 0.86 x10^-3, dyed control 73",115
same,Fog,"[4]; 0.0055 x10^-3 mole/mole Ag, dye II 0.86 x10^-3",0.53
same,S365,"[4]; 0.0055 x10^-3 mole/mole Ag, dye II 0.86 x10^-3, dyed control 73",102
same,Fog,"[4]; 0.006 x10^-3 mole/mole Ag, no dye",0.08
same,S365,"[4]; 0.006 x10^-3 mole/mole Ag, no dye, control=100",195
same,Fog,"[4]; 0.017 x10^-3 mole/mole Ag, no dye",0.13
same,S365,"[4]; 0.017 x10^-3 mole/mole Ag, no dye, control=100",191
same,effect on dye desensitization,[4],effective in ameliorating dye desensitization
CC(C(=O)O)N(CCC(=O)Nc1cccc(-n2nnnc2S)c1)c1ccccc1 (stereo not shown) [PMT-2],Fog,"[4]; 0.0005 x10^-3 mole/mole Ag, dye II 0.86 x10^-3",0.13
same,S365,"[4]; 0.0005 x10^-3 mole/mole Ag, dye II 0.86 x10^-3, dyed control 73",102
same,Fog,"[4]; 0.0016 x10^-3 mole/mole Ag, dye II 0.86 x10^-3",0.23
same,S365,"[4]; 0.0016 x10^-3 mole/mole Ag, dye II 0.86 x10^-3, dyed control 73",118
same,Fog,"[4]; 0.005 x10^-3 mole/mole Ag, dye II 0.86 x10^-3",0.40
same,S365,"[4]; 0.005 x10^-3 mole/mole Ag, dye II 0.86 x10^-3, dyed control 73",118
same,Fog,"[4]; 0.005 x10^-3 mole/mole Ag, no dye",0.06
same,S365,"[4]; 0.005 x10^-3 mole/mole Ag, no dye, control=100",191
same,Fog,"[4]; 0.016 x10^-3 mole/mole Ag, no dye",0.08
same,S365,"[4]; 0.016 x10^-3 mole/mole Ag, no dye, control=100",186
same,effect on dye desensitization,[4],effective in ameliorating dye desensitization
